Laboratory results reported in patent US20230255954A1, “INTERLEUKIN 33 (IL-33) INHIBITION FOR TREATMENT OF CANCER, FIBROSIS AND INFLAMMATION” (The General Hospital Corporation, priority 2020, published 2023).

How the values were obtained:
[1] = tested on: Il33 expression induced by Poly (I:C) in Pam212 cells; assay: Il33 RNA by qPCR in Poly (I:C)-treated Pam212 cells; assay type: cell-based, mouse
Protocol: Pam212 cells were grown at 37° C. in DMEM (Thermo Fisher Scientific, Waltham, Mass., catalog no. 11995065) supplemented with 10% fetal bovine serum (Thermo Fisher Scientific, catalog no. 26140079), 1× penicillin-streptomycin-glutamine (Thermo Fisher Scientific, catalog no. 10378016), 1×MEM non-essential amino acids solution (Thermo Fisher Scientific, catalog no. 11140050), 1×HEPES (Thermo Fisher Scientific, catalog no. 15630080) and 0.1% 2-Mercaptoethanol (Thermo Fisher Scientific, catalog no. 21985023). […]
Mouse dorsal skin samples were homogenized and lysed in RLT lysis solution (QIAGEN, catalog no. 79216)/0.1% MeOH using Mini-BeadBeater-8 (BioSpec Products, Inc., Bartlesville, Okla.). Total RNA was extracted using an RNeasy micro kit and quantified using NanoDrop ND-1100 (NanoDrop Technologies, Wilmington, Del.). cDNA samples were synthesized from 1 μg of total RNA using Invitrogen SuperScripts III Reverse Transcriptase (Thermo Fisher Scientific, catalog no. 18080085). Expression levels of all cDNA samples were determined with LightCycler 480 system (Roche Molecular Systems Inc., Pleasanton, Calif.) using TaqMan Universal Master Mix II (Thermo Fisher Scientific, catalog no. 44-400-40). […]

[2] = tested on: mouse Il33 gene promoter (IL-33 promoter-luci reporter); assay: IL-33 promoter luciferase screen of FDA-approved Drug Library; assay type: cell-based; details: 10 μM, 24 hours; IL-33 promoter-luci vs control-luci stable Pam212 cells; 1056 molecules tested
Protocol: Pam212 cells were grown at 37° C. in DMEM (Thermo Fisher Scientific, Waltham, Mass., catalog no. 11995065) supplemented with 10% fetal bovine serum (Thermo Fisher Scientific, catalog no. 26140079), 1× penicillin-streptomycin-glutamine (Thermo Fisher Scientific, catalog no. 10378016), 1×MEM non-essential amino acids solution (Thermo Fisher Scientific, catalog no. 11140050), 1×HEPES (Thermo Fisher Scientific, catalog no. 15630080) and 0.1% 2-Mercaptoethanol (Thermo Fisher Scientific, catalog no. 21985023). PyMT cell lines (derived from a primary breast tumor of MMTV-PyMrg mouse on a C57BL/6 background) were grown at 37° C. in RPMI Medium 1640 (Thermo Fisher Scientific, catalog no. 11875093) supplemented with 10% fetal bovine serum, 1× penicillin-streptomycin-glutamine and 0.1% 2-Mercaptoethanol. IL-33 promoter-luci vector (GeneCopoeia, Rockville, Md., catalog no. MPRM3494-PG02) or Control-luci vector (deletion form of IL-33 promoter region from IL-33 promoter-luci vector) or Poly (I:C) (Invivogen, San Diego, Calif., catalog no. tlrl-pic) in Pam212 cells were performed using Lipofectamine 2000 (Thermo Fisher Scientific, catalog no. 11668019) according to the manufacturer's instructions.
After transfection of plasmids in Pam212 cells, cells were incubated with 3 μg/ml of puromycin (Invivogen, San Diego, Calif., catalog no. ant-pr-1) for positive transfected cell selection. After following 2 days, medium was changed new puromycin contained medium for further selection. After following 2 days, cells were moved to new plate with puromycin contained medium. Puromycin selection was repeated for five times more.
1000 stable cells were seed to 384 wells (Corning, Glendale, Ariz., catalog no. 3570) and each of plate was incubated 24 hours. Following day, 10 μM of FDA-approved Drug Library compounds (Selleckchem, Houston, Tex., catalog no. L1300) were added to each well. After 24 hours, 5 μL of luciferase buffer from Pierce Gaussia luciferase glow assay kit (Thermo Fisher Scientific, Waltham, Mass., catalog no. 16160) were added each well and incubated for 5 min. Each plate was read and measured with luminescence by EnVision 2014 plate reader (Perkin Elmer, Waltham, Mass., catalog no. 2014 EnVision).
To make small molecule screening platform, we generated both IL-33 promoter-luci and control-luci over-expressed stable epithelial cell line (Pam212) by multiple puromycin selection strategy (FIG. 10A). To find molecules that can inhibit IL-33 expression, we tested 1056 FDA-approved small molecules against our reporter cell line. […] To find bona fide inhibitors of IL-33, we checked RNA level of Il33 by qPCR in cells treated with inducer of IL-33 expression, Poly (I:C). After cells were treated by Poly (I:C), RNA level of Il33 was increased compared to carrier group. However, Il33 RNA level was decreased by pitavastatin and tropisetron in Poly I:C-treated cells (FIGS. 10C and D). […] Finally, endogenous IL-33 protein level was decreased after treatment with pitavastatin in a dose-dependent manner (FIG. 10F). Therefore, pitavastatin is a small inhibitor molecule of IL-33.

[3] = tested on: p-IRF3 bindings to Il33 promoter region; assay: ChIP assay, p-IRF3 binding to Il33 promoter region in Pam212 cells; assay type: cell-based, mouse; details: compared to only Poly (I:C) treated group
Protocol: Pam212 cells that had been transfected with plasmids were fixed in 1% formaldehyde (Millipore Sigma, catalog no. F8775) for 10 min and were washed by cold PBS. Cells were lysed with buffer contained with 2.5% of glycerol, 50 mM HEPES (pH 7.5), 150 mM NaCl, 0.5 mM EDTA, 0.5% NP-40 and 0.25% Triton X-100. After centrifugation at 2,000 rpm, cells lysate were resuspended in buffer A contained with 1 mM Tris/HCl (pH 7.9), 20 mM NaCl and 0.5 mM EDTA and incubated at room temperature for 10 min. Following the second centrifugation at 2,000 rpm, cells were sonicated in sonication buffer containing 10 mM HEPES, 1 mM EDTA and 0.5% SDS for 30 min to achieve chromatin fragmentation. Following centrifugation at 13,000 rpm, proteins were immunoprecipitated with HA antibody at 4° C. overnight. Next day, the samples were incubated with 30 μL 50% slurry of ChIP-Grade Protein G agarose beads (Cell Signaling Technology, catalog no. 9007S) for 2 hours. Samples were precipitated, washed three times with wash buffer containing 20 mM Tris/HCl (pH 7.9), 10 mM NaCl, 2 mM EDTA, 0.1% SDS and Triton X-100. After the last wash step, samples were eluted with 100 μL of TE buffer contained with 100 mM Tris/HCl (pH 8), 1 mM EDTA and 1% SDS for three times. […] Precipitated DNA was purified by CMP DNA Clean & Concentrator (ZYMO research, Irvine, Calif., catalog no. D5205) and subjected to quantitative PCR. […]

`O=C(O)C[C@H](O)C[C@H](O)/C=C/c1c(C2CC2)nc2ccccc2c1-c1ccc(F)cc1` [pitavastatin] was tested, and the “Il33 RNA level” value [1] was “decreased”, the “IL-33/Control luminescence ratio (inhibitory effect against IL-33 reporter)” value [2] was “small molecule candidates” and the “Poly (I:C) induced p-IRF3 bindings to Il33 promoter region” value [3] was “significantly reduced”.
